# Assay results taken from patent US20260001914A1, “MACROCYCLIC PEPTIDES TARGETING KRAS” (Merck Sharp & Dohme LLC, priority 2022, published 2026).
# *1 amine or outer side, *2 acyl side, *3 side chain or, on linkers, in order; H or OH if unused. Where a SMILES comes first, the peptide text is derived from it. Bridges are numbered along the chain shown (N, C = ends). [ ]: non-standard residue; d: D form. The star is where a group is joined. cBu(1-CO,cis-3-CH2NH) = O=C([C@H]1C[C@@H](CN[*:1])C1)[*:2]; Phe(4-guanidino) = N=C(N)Nc1ccc(C[C@H](N)C(=O)O)cc1; X22 = CNC(=N)N(C)CCC[C@@H](C(=O)[*:2])N(C)[*:1]; NMe3Pal(6-Me) = CN[C@@H](Cc1ccc(C)nc1)C(=O)O; NMeHis(τ-Me) = CN[C@@H](Cc1cn(C)cn1)C(=O)O; X20 = CN([C@@H](Cc1cnco1)C(=O)[*:2])[*:1]; X3 = CN([C@@H](Cc1cncnc1)C(=O)[*:2])[*:1]; Ethyl(2-pyrrolidin-1-yl) = C1CCN(CC*)C1; NMeArg(Me) = CNC(=N)NCCC[C@H](NC)C(=O)O; Phe(2-CN) = N#Cc1ccccc1C[C@H](N)C(=O)O; X32 = CS(=O)(=O)CCCN(CC(=O)[*:2])[*:1]; X47 = O=C([C@H](Cc1ccoc1)N[*:1])[*:2]; X12 = CC(=O)NCCCN(CC(=O)[*:2])[*:1]; X38 = NC(=O)CCCN(CC(=O)[*:2])[*:1]; NMeOrn(Me) = CNCCC[C@H](NC)C(=O)O; NMeF = CN[C@@H](Cc1ccccc1)C(=O)O; 3Pal = N[C@@H](Cc1cccnc1)C(=O)O; Gly(N(CH2)3NH2) = NCCCNCC(=O)O; Ahp(2) = CCCCC[C@H](N)C(=O)O; Cba = N[C@@H](CC1CCC1)C(=O)O; αMeC = C[C@](N)(CS)C(=O)O; Nle = CCCC[C@H](N)C(=O)O; Pyrrolidide = C1CCN(*)C1
# Target: phosphorylation levels of ERK1/2 in AsPC-1 (homozygous KRAS-G12D) cells (Homo sapiens, UniProt P01116, G12D)
# Experiment: Cellular phospho-ERK assay in AsPC-1 cells (Alpha Screen), assay medium without fetal bovine serum;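 also: signal taken as phospho-ERK over total ERK per well, both detected in one multiplex bead assay, EC50 from four-parameter logistic fit of dose-response curves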
# Format: cell-based
# Details: phospho-ERK AlphaScreen, 18 h
# Procedure: Assay plate was incubated at 37° C. 5% CO2 for the indicated length of time. […] Phosphorylated ERK and total ERK levels were detected by Alpha SureFire Ultra Multiplex pERK kit (PerkinElmer MPSU-PTERK) using 5 μL, acceptor bead mix and 5 μL donor bead mix, both prepared following the manufacturer's protocol. Plates were sealed using aluminum sealing tape (Costar 07-200-683) during incubation at ambient temperature with constant shaking at 300 rpm for 1 h (both acceptor and donor). Assay plates were read on a Envision Xcite Multilabel Reader (PerkinElmer 1040900) at ambient temperature, with emission at 535 nm (Total ERK) and emission at 615 nm (Phospho ERK). Ratio of pERK vs total ERK in each well was used as the final readout. Dose response curves and EC50 were analyzed using a 4-parameter logistic equation in GraphPad Prism software.
# Chain of phosphorylation levels of ERK1/2 in AsPC-1 (homozygous KRAS-G12D) cells (P01116 1-186 G12D): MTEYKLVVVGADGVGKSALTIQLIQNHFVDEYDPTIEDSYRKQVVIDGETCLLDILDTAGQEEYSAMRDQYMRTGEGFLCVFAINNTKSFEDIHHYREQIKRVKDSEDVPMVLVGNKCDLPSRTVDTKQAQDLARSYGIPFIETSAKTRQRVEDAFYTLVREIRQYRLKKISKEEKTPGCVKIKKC
row,SMILES,EC50
1,"CCCCC[C@@H]1NC(=O)[C@H](Cc2ccc(OC)cc2)NC(=O)[C@H](CC2CCC2)NC(=O)[C@H](Cc2cccnc2)NC(=O)[C@H](CCCNC(=N)N)NC(=O)[C@H](Cc2ccccc2F)NC(=O)CSC[C@@](C)(C(N)=O)NC(=O)[C@H](Cc2ccccc2)N(C)C1=O [compound 370, cyclo(Phe2F-R-3Pal-cBuA-TyrOMe-Ahp-NMeF-aMeCl-ClAc)]",> 50.8 µM
2,"CCCCC[C@@H]1NC(=O)[C@H](Cc2ccc(OC)cc2)NC(=O)[C@H](CC2CCC2)NC(=O)[C@H](Cc2ccoc2)NC(=O)[C@H](CCCNC(=N)N)NC(=O)[C@H](Cc2ccccc2)NC(=O)CSC[C@@](C)(C(N)=O)NC(=O)[C@H](Cc2ccccc2)N(C)C1=O [compound 371, cyclo(F-R-Ala3Fur-cBuA-TyrOMe-Ahp-NMeF-aMeCl-ClAc)]",> 50.8 µM
3,"CCCCC[C@@H]1NC(=O)[C@H](Cc2ccc(OC)cc2)NC(=O)[C@H](CC2CCC2)NC(=O)[C@H](Cc2cnn(C)c2)NC(=O)[C@H](CCCNC(=N)N)NC(=O)[C@H](Cc2ccccc2)NC(=O)CSC[C@@](C)(C(N)=O)NC(=O)[C@H](Cc2ccccc2)N(C)C1=O [compound 372, cyclo(F-R-Ala4PyzlMe-cBuA-TyrOMe-Ahp-NMeF-aMeCl-ClAc)]",> 50.8 µM
4,"CCCCC[C@@H]1NC(=O)[C@H](CC(=O)N2CCCC2)NC(=O)[C@H](CC2CCC2)NC(=O)[C@H](Cc2cccnc2)NC(=O)[C@H](CCCNC(=N)N)NC(=O)[C@H](Cc2ccccc2)NC(=O)CSC[C@@](C)(C(N)=O)NC(=O)[C@H](Cc2ccccc2)N(C)C1=O [compound 373, cyclo(F-R~3Pal-cBuA-PyD-Ahp-NMeF-aMeCl-ClAc)] ({CH2CO}-FR[3Pal][Cba]D(Pyrrolidide)[Ahp(2)][NMeF][αMeC]-NH2; thioether N-8)",> 50.8 µM
5,"CCCCC[C@@H]1NC(=O)[C@H](Cc2ccoc2)NC(=O)[C@H](CC2CCC2)NC(=O)[C@H](Cc2cccnc2)NC(=O)[C@H](CCCNC(=N)N)NC(=O)[C@H](Cc2ccccc2)NC(=O)CSC[C@@](C)(C(N)=O)NC(=O)[C@H](Cc2ccccc2)N(C)C1=O [compound 374, cyclo(F-R-3Pal-cBuA-Ala3Fur-Ahp-NMeF-aMeCl-ClAc)] ({CH2CO}-FR[3Pal][Cba][X47][Ahp(2)][NMeF][αMeC]-NH2; thioether N-8)",> 50.8 µM
6,"CCCCC[C@@H]1NC(=O)[C@H](Cc2ccccc2C#N)NC(=O)[C@H](CC2CCC2)NC(=O)[C@H](Cc2cccnc2)NC(=O)[C@H](CCCNC(=N)N)NC(=O)[C@H](Cc2ccccc2)NC(=O)CSC[C@@](C)(C(N)=O)NC(=O)[C@H](Cc2ccccc2)N(C)C1=O [compound 375, cyclo(F-R-3Pal-cBuA-Phe2CN-Ahp-NMeF-aMeCl-ClAc)] ({CH2CO}-FR[3Pal][Cba][Phe(2-CN)][Ahp(2)][NMeF][αMeC]-NH2; thioether N-8)",> 50.8 µM
7,"CCCCC[C@@H]1NC(=O)[C@H](Cc2ccc(OC)cc2)NC(=O)[C@H](CC2CCC2)NC(=O)[C@H](Cc2cccnc2)NC(=O)[C@H](CCCNC(=N)N)NC(=O)[C@H](Cc2ccccc2)NC(=O)CSC[C@@](C)(C(N)=O)NC(=O)[C@H](Cc2cncnc2)N(C)C1=O [compound 376, cyclo(F-R-3Pal-cBuA-TyrOMe-Ahp-NMeAlaPyrim-aMeCl-ClAc)] ({CH2CO}-FR[3Pal][Cba]Y(Me)[Ahp(2)][X3][αMeC]-NH2; thioether N-8)",> 50.8 µM
8,"CCCCC[C@@H]1NC(=O)[C@H](Cc2ccc(OC)cc2)NC(=O)[C@H](CC2CCC2)NC(=O)[C@H](Cc2cccnc2)NC(=O)[C@H](CCCNC(=N)N)NC(=O)[C@H](Cc2ccccc2)NC(=O)CSC[C@@](C)(C(N)=O)NC(=O)[C@H](Cc2ccc(C)nc2)N(C)C1=O [compound 377, cyclo(F-R-3Pal-cBuA-TyrOMe-Ahp-NMe3Pal4Me-aMeCl-ClAc)] ({CH2CO}-FR[3Pal][Cba]Y(Me)[Ahp(2)][NMe3Pal(6-Me)][αMeC]-NH2; thioether N-8)",> 50.8 µM
9,"CCCCC[C@@H]1NC(=O)[C@H](Cc2ccc(OC)cc2)NC(=O)[C@H](CC2CCC2)NC(=O)[C@H](Cc2cccnc2)NC(=O)[C@H](CCCNC(=N)N)NC(=O)[C@H](Cc2ccccc2)NC(=O)CSC[C@@](C)(C(N)=O)NC(=O)[C@H](Cc2cn(C)cn2)N(C)C1=O [compound 378, cyclo(F-R-3Pal-cBuA-TyrOMe-Ahp-NMeHis1Me-aMeCl-ClAc)] ({CH2CO}-FR[3Pal][Cba]Y(Me)[Ahp(2)][NMeHis(τ-Me)][αMeC]-NH2; thioether N-8)",> 50.8 µM
10,"CCCCC[C@@H]1NC(=O)[C@H](Cc2ccc(OC)cc2)NC(=O)[C@H](CC2CCC2)NC(=O)[C@H](Cc2cccnc2)NC(=O)[C@H](CCCNC(=N)N)NC(=O)[C@H](Cc2ccccc2)NC(=O)CSC[C@@](C)(C(N)=O)NC(=O)[C@H](Cc2cnco2)N(C)C1=O [compound 379, cyclo(F-R-3Pal-cBuA-TyrOMe-Ahp-NMeAla5Oxa-aMeCl-ClAc)] ({CH2CO}-FR[3Pal][Cba]Y(Me)[Ahp(2)][X20][αMeC]-NH2; thioether N-8)",> 50.8 µM
11,"CCCCC[C@@H]1NC(=O)[C@H](Cc2ccc(OC)cc2)NC(=O)[C@H](CC2CCC2)NC(=O)[C@H](Cc2ccc(NC(=N)N)cc2)NC(=O)[C@H](CCCNC(=N)NC)N(C)C(=O)[C@H](Cc2ccccc2)NC(=O)CSC[C@@](C)(C(N)=O)NC(=O)[C@H](Cc2ccccc2)N(C)C1=O [compound 380, cyclo(F-NMeArgMe-Phe4Gn-cBuA-TyrOMe-Abp-NMeF-aMeCl-ClAc)] ({CH2CO}-F[NMeArg(Me)][Phe(4-guanidino)][Cba]Y(Me)[Ahp(2)][NMeF][αMeC]-NH2; thioether N-8)",> 50.8 µM
12,"CCCCC[C@@H]1NC(=O)[C@H](Cc2ccc(OC)cc2)NC(=O)[C@H](CC2CCC2)NC(=O)[C@H](Cc2ccc(NC(=N)N)cc2)NC(=O)[C@H](CCCN(C)C(=N)NC)N(C)C(=O)[C@H](Cc2ccccc2)NC(=O)CSC[C@@](C)(C(N)=O)NC(=O)[C@H](Cc2ccccc2)N(C)C1=O [compound 381, cyclo(F-NMeArg1MeMe-Phe4Gn-cBuA-TyrOMe-Ahp-NMeF-aMeCl-ClAc)] ({CH2CO}-F[X22][Phe(4-guanidino)][Cba]Y(Me)[Ahp(2)][NMeF][αMeC]-NH2; thioether N-8)",> 50.8 µM
13,"CCCCC[C@@H]1NC(=O)[C@H](Cc2ccc(OC)cc2)NC(=O)[C@H](CC2CCC2)NC(=O)[C@H](Cc2ccc(N(C)C(=N)NC)cc2)NC(=O)[C@H](CCCNC(=N)N)NC(=O)[C@H](Cc2ccccc2)NC(=O)CSC[C@@](C)(C(N)=O)NC(=O)[C@H](Cc2ccccc2)N(C)C1=O [compound 382, cyclo(F-R-Phe4GnMeMe-cBuA-TyrOMe-Ahp-NMeF-aMeCl-ClAc)]",> 50.8 µM
14,"CCCCC[C@@H]1NC(=O)[C@H](Cc2ccc(OC)cc2)NC(=O)[C@H](CC2CCC2)NC(=O)[C@H](Cc2ccc(OCCN3CCCC3)cc2)NC(=O)[C@H](CCCNC(=N)N)NC(=O)[C@H](Cc2ccccc2)NC(=O)CSC[C@@](C)(C(N)=O)NC(=O)[C@H](Cc2ccccc2)N(C)C1=O [compound 383, cyclo(F-R-TyrOEtPyr-cBuA-TyrOMe-Ahp-NMeF-aMeCl-ClAc)] ({CH2CO}-FRY(Ethyl(2-pyrrolidin-1-yl))[Cba]Y(Me)[Ahp(2)][NMeF][αMeC]-NH2; thioether N-8)",> 50.8 µM
15,"CCCC[C@@H]1NC(=O)[C@H](Cc2ccc(NC(=N)N)cc2)NC(=O)[C@H](CCCN(C)C(=N)NC)N(C)C(=O)[C@H](Cc2ccccc2)NC(=O)[C@H]2C[C@@H](CNC(=O)[C@H](Cc3ccccc3)N(C)C(=O)[C@H](CCCC)NC(=O)[C@H](Cc3ccc(OC)cc3)NC1=O)C2 [compound 384, cyclo(F-NMeArg1MeMe-Phe4Gn-Nle-TyrOMe-Nle-NMeF-c3amCblc)] (cyclo(F[X22][Phe(4-guanidino)][Nle]Y(Me)[Nle][NMeF][cBu(1-CO,cis-3-CH2NH)]))",> 50.8 µM
16,"CCCCC[C@@H]1NC(=O)[C@H](Cc2ccc(OC)cc2)NC(=O)[C@H](CC2CCC2)NC(=O)[C@H](Cc2ccc(NC(=N)N)cc2)NC(=O)[C@H](CCCNC)N(C)C(=O)[C@H](Cc2ccccc2)NC(=O)CSC[C@@](C)(C(N)=O)NC(=O)[C@H](Cc2ccccc2)N(C)C1=O [compound 385, cyclo(F-NMeOrnMe-Phe4Gn-cBuA-TyrOMe-Ahp-NMeF-aMeCl-ClAc)] ({CH2CO}-F[NMeOrn(Me)][Phe(4-guanidino)][Cba]Y(Me)[Ahp(2)][NMeF][αMeC]-NH2; thioether N-8)",> 50.8 µM
17,"CCCCC[C@@H]1NC(=O)[C@H](Cc2ccc(OC)cc2)NC(=O)[C@H](CC2CCC2)NC(=O)[C@H](Cc2ccc(NC(=N)N)cc2)NC(=O)CN(CCCC(N)=O)C(=O)[C@H](Cc2ccccc2)NC(=O)CSC[C@@](C)(C(N)=O)NC(=O)[C@H](Cc2ccccc2)N(C)C1=O [compound 386, cyclo(F-Cmpg-Phe4Gn-cBuA-TyrOMe-Abp-NMeF-aMeCl-ClAc)] ({CH2CO}-F[X38][Phe(4-guanidino)][Cba]Y(Me)[Ahp(2)][NMeF][αMeC]-NH2; thioether N-8)",> 50.8 µM
18,"CCCCC[C@@H]1NC(=O)[C@H](Cc2ccc(OC)cc2)NC(=O)[C@H](CC2CCC2)NC(=O)[C@H](Cc2ccc(NC(=N)N)cc2)NC(=O)CN(CCCNC(C)=O)C(=O)[C@H](Cc2ccccc2)NC(=O)CSC[C@@](C)(C(N)=O)NC(=O)[C@H](Cc2ccccc2)N(C)C1=O [compound 387, cyclo(F-AcApG-Phe4Gn-cBuA-TyrOMe-Ahp-NMcF-aMeCl-ClAc)] ({CH2CO}-F[X12][Phe(4-guanidino)][Cba]Y(Me)[Ahp(2)][NMeF][αMeC]-NH2; thioether N-8)",> 50.8 µM
19,"CCCCC[C@@H]1NC(=O)[C@H](Cc2ccc(OC)cc2)NC(=O)[C@H](CC2CCC2)NC(=O)[C@H](Cc2ccc(NC(=N)N)cc2)NC(=O)CN(CCCN)C(=O)[C@H](Cc2ccccc2)NC(=O)CSC[C@@](C)(C(N)=O)NC(=O)[C@H](Cc2ccccc2)N(C)C1=O [compound 388, cyclo(F-NPrNH2G-Phe4Gn-cBuA-TyrOMe-Ahp-NMeF-aMeCl-ClAc)] ({CH2CO}-F[Gly(N(CH2)3NH2)][Phe(4-guanidino)][Cba]Y(Me)[Ahp(2)][NMeF][αMeC]-NH2; thioether N-8)",> 50.8 µM
20,"CCCCC[C@@H]1NC(=O)[C@H](Cc2ccc(OC)cc2)NC(=O)[C@H](CC2CCC2)NC(=O)[C@H](Cc2ccc(NC(=N)N)cc2)NC(=O)CN(CCCS(C)(=O)=O)C(=O)[C@H](Cc2ccccc2)NC(=O)CSC[C@@](C)(C(N)=O)NC(=O)[C@H](Cc2ccccc2)N(C)C1=O [compound 389, cyclo(F-Mspg-Phe4Gn-cBuA-TyrOMe-Ahp-NMeF-aMeCl-ClAc)] ({CH2CO}-F[X32][Phe(4-guanidino)][Cba]Y(Me)[Ahp(2)][NMeF][αMeC]-NH2; thioether N-8)",> 50.8 µM
